{"source": "patent US6914045B2", "about": "“Glycopeptide antibiotics” (Wyeth Holdings Corporation, priority 2001, dated 2005)", "experiment_in_all_cases": "in vitro antibacterial evaluation, MIC by broth dilution", "format_in_all_cases": "cell-based", "key": {"Enterococcus sp.": {"tested_on": "Enterococcus sp.", "conditions": "broth dilution, 18 hours at 35° C.", "how_it_was_run": "(§1)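 Following National Committee for Clinical Laboratory Standards recommendations (M7-A2), susceptibility was measured by dilution in Muller-Hinton II […]. Bacteria were seeded at 5×10^5 CFU/mL against compound concentrations from 64 down to 0.06 μg/mL.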"}, "Streptococcus sp.": {"tested_on": "Streptococcus sp.", "conditions": "broth dilution, 18 hours at 35° C.", "how_it_was_run": "as §1"}, "Staphylococcus sp.": {"tested_on": "Staphylococcus sp.", "conditions": "broth dilution, 18 hours at 35° C.", "how_it_was_run": "as §1"}, "Escherichia coli": {"tested_on": "Escherichia coli", "conditions": "18 hours at 35° C.", "how_it_was_run": "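Broth dilution per NCCLS standard M7-A2 in Muller-Hinton II […], with an inoculum of 5×10^5 CFU/mL and antibiotic spanning 64-0.06 μg/mL. The MIC is the lowest concentration that inhibits growth of the organism.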"}}, "note": "Numbered stars: 1 amine (or outer) side, 2 acyl side, 3 side chain; on linkers, the order of the positions; unused ones are H or OH. Square brackets hold non-standard residues; d marks the D form. Peptide text beside a SMILES is read from it. * marks the point of attachment. ξ: configuration not given here. X6 = N=C1NCC(CC(N[*:1])C(=O)[*:2])N1C1OC(CO)C(O)C(O)C1O; ξEnduracididine(βξ-OH,4'ξ) = N=C1NCC(C(O)C(N)C(=O)O)N1; X2 = OCC1OC(OC2C(CO)OC(*)C(O)C2O)C(O)C(O)C1O; ξPhe(βξ-Me) = CC(c1ccccc1)C(N)C(=O)O", "data": [{"smiles": "CC(c1ccccc1)C1NC(=O)CNC(=O)C(CO)NC(=O)C(CC2CNC(=N)N2C2OC(CO)C(O)C(O)C2O)NC(=O)C(C(O)C2CNC(=N)N2)NC(=O)C(Cc2ccc(OC3OC(CO)C(OC4OC(CO)C(O)C(O)C4O)C(O)C3O)cc2)NC1=O", "note": "(stereo not drawn) [Example 284b, Cyclo[3-(3-hexopyranosyl-2-iminoimidazolidin-4-yl)-alanylserylglycl-β-methylphenylalanyl-O-(4-O-hexopyranosylhexopyranosyl)tyrosyl-3-(2-iminoimidazolidin-4-yl)seryl]] (cyclo(G[ξPhe(βξ-Me)]Y(X2)[ξEnduracididine(βξ-OH,4'ξ)][X6]S); configuration not given here)", "values": [{"measurement": "MIC Enterococcus avium (GC 4558)", "setting": "Enterococcus sp.; Enterococcus avium (GC 4558)", "value": 128, "unit": "µg/mL"}, {"measurement": "MIC Enterococcus faecalis (ATCC 29212)", "setting": "Enterococcus sp.; Enterococcus faecalis (ATCC 29212)", "value": ">128", "unit": "µg/mL"}, {"measurement": "MIC Enterococcus faecalis (GC 4553)", "setting": "Enterococcus sp.; Enterococcus faecalis (GC 4553)", "value": ">128", "unit": "µg/mL"}, {"measurement": "MIC Enterococcus faecalis (GC 4554)", "setting": "Enterococcus sp.; Enterococcus faecalis (GC 4554)", "value": ">128", "unit": "µg/mL"}, {"measurement": "MIC Enterococcus faecalis (GC 6189)", "setting": "Enterococcus sp.; Enterococcus faecalis (GC 6189)", "value": ">128", "unit": "µg/mL"}, {"measurement": "MIC Enterococcus faecium (GC 2243)", "setting": "Enterococcus sp.; Enterococcus faecium (GC 2243)", "value": ">128", "unit": "µg/mL"}, {"measurement": "MIC Enterococcus faecium (GC 4556)", "setting": "Enterococcus sp.; Enterococcus faecium (GC 4556)", "value": ">128", "unit": "µg/mL"}, {"measurement": "MIC Enterococcus faecium (GC 4557)", "setting": "Enterococcus sp.; Enterococcus faecium (GC 4557)", "value": 128, "unit": "µg/mL"}, {"measurement": "MIC Enterococcus faecalis (ATCC 29212)", "setting": "Enterococcus sp.; strain ATCC 29212", "value": ">128", "unit": "µg/mL"}, {"measurement": "MIC Enterococcus faecalis (GC 2242)", "setting": "Enterococcus sp.; strain GC 2242", "value": ">128", "unit": "µg/mL"}, {"measurement": "MIC Enterococcus faecium (GC 2243)", "setting": "Enterococcus sp.; strain GC 2243", "value": ">128", "unit": "µg/mL"}, {"measurement": "MIC Enterococcus faecalis (GC 2691)", "setting": "Enterococcus sp.; strain GC 2691", "value": ">128", "unit": "µg/mL"}, {"measurement": "MIC Enterococcus faecalis (GC 3059)", "setting": "Enterococcus sp.; strain GC 3059", "value": ">128", "unit": "µg/mL"}, {"measurement": "MIC Enterococcus faecalis (GC 4552)", "setting": "Enterococcus sp.; strain GC 4552", "value": ">128", "unit": "µg/mL"}, {"measurement": "MIC Enterococcus faecalis (GC 4553)", "setting": "Enterococcus sp.; strain GC 4553", "value": ">128", "unit": "µg/mL"}, {"measurement": "MIC Enterococcus faecalis (GC 4554)", "setting": "Enterococcus sp.; strain GC 4554", "value": ">128", "unit": "µg/mL"}, {"measurement": "MIC Enterococcus faecium (GC 4556)", "setting": "Enterococcus sp.; strain GC 4556", "value": ">128", "unit": "µg/mL"}, {"measurement": "MIC Enterococcus faecium (GC 4557)", "setting": "Enterococcus sp.; strain GC 4557", "value": 128, "unit": "µg/mL"}, {"measurement": "MIC Enterococcus avium (GC 4558)", "setting": "Enterococcus sp.; strain GC 4558", "value": 128, "unit": "µg/mL"}, {"measurement": "MIC Enterococcus faecalis (GC 6189)", "setting": "Enterococcus sp.; strain GC 6189", "value": ">128", "unit": "µg/mL"}, {"measurement": "MIC Streptococcus pneumoniae (ATCC 6301)", "setting": "Streptococcus sp.; strain ATCC 6301", "value": ">128", "unit": "µg/mL"}, {"measurement": "MIC Streptococcus pneumoniae (GC 1894)", "setting": "Streptococcus sp.; strain GC 1894", "value": 128, "unit": "µg/mL"}, {"measurement": "MIC Streptococcus pyogenes (GC 4563)", "setting": "Streptococcus sp.; strain GC 4563", "value": ">128", "unit": "µg/mL"}, {"measurement": "MIC Streptococcus agalactiae (GC 4564)", "setting": "Streptococcus sp.; strain GC 4564", "value": ">128", "unit": "µg/mL"}, {"measurement": "MIC Streptococcus pneumoniae (GC 4565)", "setting": "Streptococcus sp.; strain GC 4565", "value": ">128", "unit": "µg/mL"}, {"measurement": "MIC Coagulase Negative Staphylococcus (GC 4547)", "setting": "Staphylococcus sp.", "value": ">128", "unit": "µg/mL"}, {"measurement": "MIC Coagulase Negative Staphylococcus (GC 4548)", "setting": "Staphylococcus sp.", "value": ">128", "unit": "µg/mL"}, {"measurement": "MIC Coagulase Negative Staphylococcus (GC 4549)", "setting": "Staphylococcus sp.", "value": ">128", "unit": "µg/mL"}, {"measurement": "MIC Coagulase Negative Staphylococcus (GC 4551)", "setting": "Staphylococcus sp.", "value": ">128", "unit": "µg/mL"}, {"measurement": "MIC Staphylococcus aureus (ATCC 29213)", "setting": "Staphylococcus sp.", "value": ">128", "unit": "µg/mL"}, {"measurement": "MIC Staphylococcus aureus (GC 1131)", "setting": "Staphylococcus sp.", "value": ">128", "unit": "µg/mL"}, {"measurement": "MIC Staphylococcus aureus (GC 3051)", "setting": "Staphylococcus sp.", "value": ">128", "unit": "µg/mL"}, {"measurement": "MIC Staphylococcus aureus (GC 3053)", "setting": "Staphylococcus sp.", "value": ">128", "unit": "µg/mL"}, {"measurement": "MIC Staphylococcus aureus (GC 4541)", "setting": "Staphylococcus sp.", "value": ">128", "unit": "µg/mL"}, {"measurement": "MIC Staphylococcus aureus (GC 4542)", "setting": "Staphylococcus sp.", "value": ">128", "unit": "µg/mL"}, {"measurement": "MIC Staphylococcus aureus (GC 4544)", "setting": "Staphylococcus sp.", "value": ">128", "unit": "µg/mL"}, {"measurement": "MIC Staphylococcus aureus (GC 4545)", "setting": "Staphylococcus sp.", "value": ">128", "unit": "µg/mL"}, {"measurement": "MIC Staphylococcus aureus-SMITH (GC 4543)", "setting": "Staphylococcus sp.", "value": ">128", "unit": "µg/mL"}, {"measurement": "MIC Staphylococcus haemolyticus (GC 4546)", "setting": "Staphylococcus sp.", "value": ">128", "unit": "µg/mL"}, {"measurement": "MIC Staphylococcus aureus (ATCC 29213)", "setting": "Staphylococcus sp.; strain ATCC 29213", "value": ">128", "unit": "µg/mL"}, {"measurement": "MIC Staphylococcus aureus (GC 1131)", "setting": "Staphylococcus sp.; strain GC 1131", "value": ">128", "unit": "µg/mL"}, {"measurement": "MIC Staphylococcus aureus (GC 3051)", "setting": "Staphylococcus sp.; strain GC 3051", "value": ">128", "unit": "µg/mL"}, {"measurement": "MIC Staphylococcus aureus (GC 3053)", "setting": "Staphylococcus sp.; strain GC 3053", "value": ">128", "unit": "µg/mL"}, {"measurement": "MIC Staphylococcus aureus (GC 4541)", "setting": "Staphylococcus sp.; strain GC 4541", "value": ">128", "unit": "µg/mL"}, {"measurement": "MIC Staphylococcus aureus (GC 4542)", "setting": "Staphylococcus sp.; strain GC 4542", "value": ">128", "unit": "µg/mL"}, {"measurement": "MIC Staphylococcus aureus (GC 4544)", "setting": "Staphylococcus sp.; strain GC 4544", "value": ">128", "unit": "µg/mL"}, {"measurement": "MIC Staphylococcus aureus (GC 4545)", "setting": "Staphylococcus sp.; strain GC 4545", "value": ">128", "unit": "µg/mL"}, {"measurement": "MIC Staphylococcus haemolyticus (GC 4546)", "setting": "Staphylococcus sp.; strain GC 4546", "value": ">128", "unit": "µg/mL"}, {"measurement": "MIC Coagulase Negative Staphylococcus (GC 4547)", "setting": "Staphylococcus sp.; strain GC 4547", "value": ">128", "unit": "µg/mL"}, {"measurement": "MIC Coagulase Negative Staphylococcus (GC 4548)", "setting": "Staphylococcus sp.; strain GC 4548", "value": ">128", "unit": "µg/mL"}, {"measurement": "MIC Coagulase Negative Staphylococcus (GC 4549)", "setting": "Staphylococcus sp.; strain GC 4549", "value": ">128", "unit": "µg/mL"}, {"measurement": "MIC Coagulase Negative Staphylococcus (GC 4551)", "setting": "Staphylococcus sp.; strain GC 4551", "value": ">128", "unit": "µg/mL"}, {"measurement": "MIC Staphylococcus aureus-SMITH (GC 4543)", "setting": "Staphylococcus sp.; strain SMITH GC 4543", "value": ">128", "unit": "µg/mL"}, {"measurement": "MIC Escherichia coli (ATCC 25922)", "setting": "Escherichia coli; Escherichia coli (ATCC 25922)", "value": ">128", "unit": "µg/mL"}, {"measurement": "MIC Escherichia coli (GC 4559)", "setting": "Escherichia coli; Escherichia coli (GC 4559)", "value": ">128", "unit": "µg/mL"}, {"measurement": "MIC Escherichia coli (GC 4560)", "setting": "Escherichia coli; Escherichia coli (GC 4560)", "value": ">128", "unit": "µg/mL"}]}]}
